Details: Liquid, Ebulliometric method (Recirculating still)

C1CCCCC1 [cyclohexane]
Details | vapor or sublimation pressure [kPa]
313.4 K | 24.95
315.76 K | 27.43
318.05 K | 29.95
320.11 K | 32.46
322.06 K | 34.9
323.92 K | 37.43
325.66 K | 39.94
327.32 K | 42.42
328.9 K | 44.91
330.44 K | 47.45
331.94 K | 49.92
333.33 K | 52.43
334.6 K | 54.76
335.99 K | 57.44
337.31 K | 59.98
338.5 K | 62.44
339.65 K | 64.86
340.81 K | 67.47
341.92 K | 69.94
342.99 K | 72.45
344.05 K | 74.96
344.09 K | 75.07
345.11 K | 77.54
346.07 K | 79.92
347.06 K | 82.52
348.01 K | 85.03
348.86 K | 87.27
349.84 K | 89.99
350.73 K | 92.48
351.55 K | 94.84
353.73 K | 101.33

C1=CCCCC1 [cyclohexene]
Details | vapor or sublimation pressure [kPa]
315.56 K | 24.94
318.01 K | 27.43
320.26 K | 29.98
322.34 K | 32.47
324.31 K | 34.95
326.23 K | 37.52
327.96 K | 39.98
329.61 K | 42.45
331.23 K | 45.01
332.73 K | 47.48
334.22 K | 50.02
335.62 K | 52.51
336.98 K | 55.02
338.27 K | 57.52
339.52 K | 59.98
340.73 K | 62.46
341.94 K | 65.02
343.07 K | 67.51
344.16 K | 69.97
345.27 K | 72.51
346.3 K | 74.96
347.33 K | 77.48
348.35 K | 80.02
349.31 K | 82.52
350.26 K | 84.99
351.18 K | 87.45
352.09 K | 89.96
352.97 K | 92.46
353.85 K | 95.01
354.71 K | 97.52
355.97 K | 101.33

CCCCCC [hexane]
Details | vapor or sublimation pressure [kPa]
303.16 K | 25.04
305.43 K | 27.5
307.43 K | 29.95
309.54 K | 32.44
311.47 K | 35.07
313.25 K | 37.51
314.84 K | 39.98
316.52 K | 42.44
317.92 K | 45.02
319.49 K | 47.45
320.76 K | 50.01
322.26 K | 52.52
323.37 K | 55.03
324.59 K | 57.32
325.89 K | 60.07
326.95 K | 62.46
328.09 K | 64.77
329.19 K | 67.22
330.16 K | 69.64
331.45 K | 72.45
332.28 K | 74.82
333.48 K | 77.48
334.39 K | 79.84
335.33 K | 82.31
336.26 K | 84.88
337.14 K | 87.26
338.02 K | 89.85
338.91 K | 92.35
339.73 K | 94.85
340.44 K | 97.02
341.79 K | 101.32

C=CCCCC [hex-1-ene]
Details | vapor or sublimation pressure [kPa]
298.07 K | 24.93
300.32 K | 27.41
302.55 K | 30.08
304.54 K | 32.46
306.31 K | 34.84
308.2 K | 37.48
309.84 K | 39.96
311.51 K | 42.53
312.98 K | 44.96
314.38 K | 47.42
315.79 K | 49.92
317.17 K | 52.53
318.43 K | 54.98
319.62 K | 57.39
320.84 K | 59.94
322.02 K | 62.51
323.16 K | 64.97
324.21 K | 67.45
325.25 K | 69.88
326.29 K | 72.44
327.32 K | 75.04
328.25 K | 77.45
329.21 K | 79.98
330.11 K | 82.42
331.01 K | 84.93
331.86 K | 87.33
332.74 K | 89.92
333.62 K | 92.54
334.38 K | 94.82
335.24 K | 97.45
336.48 K | 101.3

Reference: the NIST ThermoML archive (doi:10.1016/j.fluid.2008.12.007)
